These are literature values, as cited in patent US20010012851A1, “NITRIC OXIDE RELEASING OXINDOLE PRODRUGS FOR ANAGESIC, ANTI-INFLAMMATORY AND DISEASE-MODIFYING USE” (priority 1999, published 2001).

The conditions of data set [1]: animal models of acute and chronic inflammation; versus parent NSAID.
For data set [2] the following is noted: acute and chronic administration; versus parent NSAID.
For data set [3] the following is noted: rat; for healing of experimental gastric ulcers (healing rate): daily treatment, Elliott et al. 1995.
For data set [4] the following is noted: rat.

As for `O=C(Cc1ccccc1Nc1c(Cl)cccc1Cl)OCCCCO[N+](=O)[O-]` [diclofenac nitroxybutylester, diclofenac-4-nitroxybutylester], the anti-inflammatory activity entry in data set [1] is given as “comparable to that of their parent NSAIDs”. The gastric injury result in data set [2] is listed as “markedly less gastric injury”. In data set [3], the “healing of experimental gastric ulcers (healing rate)” value (“healing … (healing rate)” for short) is given as “accelerated”.

`O=C(O)Cc1ccccc1Nc1c(Cl)cccc1Cl` [diclofenac]: the “healing … (healing rate)” value in data set [3] is recorded as “no effect”.

As to `CC(C(=O)OCCCCO[N+](=O)[O-])c1ccc(-c2ccccc2)c(F)c1` (stereo not shown) [flurbiprofen nitroxybutylester], in data set [1], the anti-inflammatory activity result is given as “comparable to that of their parent NSAIDs”. The mitochondrial damage entry in data set [4] (in vivo) is reported as “associated with mitochondrial damage in vivo”. In addition, the “macroscopic damage in the small intestine” value in data set [4] (versus flurbiprofen) is “significantly less macroscopic damage”. The gastric injury result in data set [2] was “markedly less gastric injury”.

In the case of `O=[N+]([O-])OCC(CO[N+](=O)[O-])O[N+](=O)[O-]` [glyceryl trinitrate], in data set [3], the “healing … (healing rate)” value is listed as “accelerated”. In data set [3] (earlier knowledge on the NO donor), the “healing of experimental gastric ulcers” value was “significantly accelerated”.

For the compound `CC(C(=O)OCCCCO[N+](=O)[O-])c1cccc(C(=O)c2ccccc2)c1` (stereo not shown) [ketoprofen nitroxybutylester], in data set [1], the anti-inflammatory activity result is reported as “comparable to that of their parent NSAIDs”. Also, the gastric injury result in data set [2] was “markedly less gastric injury”.

Regarding `COc1ccc2cc(CCC(C)=O)ccc2c1` [nabumetone], the “healing … (healing rate)” value in data set [3] is listed as “no effect”.
